From patent US20090104297A1, “HERBAL COMPOSITION FOR TREATMENT OF INFECTIONS CAUSED BY DERMATOPHYTES” (Piramal Life Sciences Limited, priority 2006, published 2009)
Converted amounts (≈) assume the structure as drawn. Read-outs that look alike come from different tables or passages of the source.

How the values were obtained:
Micropsporum gypseum = experiment: In vitro susceptibility testing (MIC) by macro broth dilution method (CLSI M-38); type: cell-based, Microsporum gypseum; details: for MIC: Nannizzia gypsea
Experimental: (§1) In vitro susceptibility testing (Minimum Inhibitory Concentration) by macro broth dilution method—(CLSI method-M-38) was carried out as described in literature.
(§2) Reference method for broth dilution antifungal susceptibility testing of yeasts-Approved standard. NCCLS document M27-A. National Committee for Clinical Laboratory Standards, Wayne, Pa.;
(§3) Reference method for broth dilution antifungal susceptibility testing of filamentous fungi-Approved standard. NCCLS document M38-A. National Committee for Clinical Laboratory Standards, Wayne, Pa.
(§4) Candida albicans, Trichophyton mentagrophytes and Micropsporum gypseum were used as test organisms.
(§5) RPMI 1640 (Sigma) with L-glutamine but without sodium bicarbonate and buffered at pH 7.0 with 3-(N-morpholino) propanesulfonic acid monosodium salt (MOPS), was the medium used for broth macro dilution susceptibility testing.
(§6) The extract of example 1, compound 1 and ketoconazole as standard.
(§7) The samples were prepared in methanol at 100 times the final concentration, followed by further dilutions (1:10) in RPMI 1640 medium to yield ten times the final strength required for the test. Purified component was also diluted in the same manner in methanol alone. Aliquots (0.1 ml) of each extract were dispensed into tubes. The final concentrations of extract ranged from 100-10 μg/ml.
(§8) The cultures were grown on PDA agar slants at 28° C. for 7 days. The growth was covered with sterile saline and scraped to get a growth suspension. The resulting mixture of conidia or sporangiospores and hypal fragments was transferred to a sterile test tube. The heavy particles were allowed to settle and upper homogenous suspension was transferred to another tube. These suspensions were adjusted to an optical density that ranged from 0.09 to 0.11 (80 to 82% transmittance). These stock suspensions were further diluted 1:100 with medium to obtain test inoculum (0.4×10^4 to 5×10^4 cfu/ml).
(§9) Finally the tubes were inoculated with 0.1 ml of sample dilutions and 0.9 ml of the above-prepared inoculum. […] Growth control tube received only diluent without sample. […]

Candida albicans = experiment: as above; type: cell-based
Experimental: as §1, §2, §3, §4, §5, §6
as §7, with “μg/ml. […]” for “μg/ml.”

[1] = test system: Trichophyton mentagrophytes; experiment: as above; type: cell-based; details: for MIC: Trichophyton mentagrophytes
Experimental: as §1, §2, §3, §4, §5, §6, §7, §8, §9

[2] = test system: Trichophyton mentagrophytes; experiment: Agar well diffusion method, zone of inhibition; type: cell-based; details: preparative HPLC fractions; concentration not given
Experimental: The given extracts were tested against a panel of microorganisms, including Candida albicans 10231, Microsporum gypseum and Trichophyton mentagrophytes.
The strains were cultured overnight at 30° C. in Sabouraud dextrose agar. Colonies from subcultures were suspended in saline and vortexed to give a transmittance of 75-80% at 530 nm (T530 nm≈10^8 cfu/ml). Predecided volume of inoculum was mixed with molten agar at 40° C. and poured into sterile petri plates. Plates were allowed to set and solidify. Then wells (6 mm in diameter) were cut from the agar and 0.05 ml of extract solution was delivered into them. After incubation for 48 hours, at 28° C., all plates were examined for any zones of growth inhibition, and the diameters of these zones were measured in millimeters.
The stock solutions of 10 mg/ml of extracts of example 1 was prepared by suspending extract in methanol and sonicating for 10 seconds. Further dilutions were made to get a concentration range of 5, 2 and 1 mg/ml.
Preparative TLC samples were analyzed for the activity by Agar well diffusion method as described in example 2.
All preparative HPLC fractions were analyzed for activity by Agar well diffusion method as described in example 2.

| Structure (SMILES) | MIC (Micropsporum gypseum; 48 h, pH 7, read-out: MIC values, Microsporum gypseum) [µg/mL] | MIC against dermatophytes versus ketoconazole (conclusion of Table 3), Microsporum gypseum (Micropsporum gypseum; macro broth dilution) | MIC (Candida albicans; 24 h, pH 7, read-out: MIC values, Candida ablicans) [µg/mL] | MIC ([1]; 48 h, pH 7, read-out: MIC values, Trichophyton mentagrophytes) [µg/mL] | MIC against dermatophytes versus ketoconazole (conclusion of Table 3), Trichophyton mentagrophytes ([1]; macro broth dilution) | zone of inhibition (tested against Trichophyton mentagrophytes culture) [2] [mm] | MIC (Micropsporum gypseum; macro broth dilution, RPMI 1640 pH 7.0, 28° C. for 48 hours, 100% growth inhibition, read-out: MIC values, Microsporum gypseum) [µg/mL] | MIC (Candida albicans; macro broth dilution, RPMI 1640 pH 7.0, 37° C. for 24 hours, 100% growth inhibition, read-out: MIC values, Candida ablicans) [µg/mL] | MIC ([1]; macro broth dilution, RPMI 1640 pH 7.0, 28° C. for 48 hours, 100% growth inhibition, read-out: MIC values, Trichophyton mentagrophytes) [µg/mL] |
| --- | --- | --- | --- | --- | --- | --- | --- | --- | --- |
| COc1cc2[nH]c3ccccc3c2cc1C [Compound 1, 2-methoxy-3-methyl-9H-carbazole] | 4 (≈ 18.9 µM) | Conclusion: MIC of compound 1 against dermatophytes is comparable with ketoconazole. | 30 (≈ 142 µM) | 6 (≈ 28.4 µM) | Conclusion: MIC of compound 1 against dermatophytes is comparable with ketoconazole. | > 25 | – | – | – |
| CC(=O)N1CCN(c2ccc(OCC3COC(Cn4ccnc4)(c4ccc(Cl)cc4Cl)O3)cc2)CC1 (stereo not drawn) [Ketoconazole, ketoconazole, reference compound] | – | – | – | – | – | – | 4 (≈ 7.53 µM) | 5 (≈ 9.41 µM) | 4 (≈ 7.53 µM) |
